Data published in patent US8501957B2, “Benzimidazole compounds and their use as anticancer agents” (China Medical University, priority 2008, dated 2013).

Assays:
[1] = system: hepatocellular carcinoma HepG2 cells; experiment: SRB assay, HepG2 cells; format: cell-based; settings: Homo sapiens, SRB growth inhibition, 48 hrs or 72 hrs
Description: (§1) NCI/ADR-RES cell line was obtained from DTP Human Tumor Cell Line Screen (Developmental Therapeutics Program, NCI). Other cancer cell lines (A549, Hep G2, Hep 3B, DU-145, LNCaP, and PC-3) were obtained from American Type Culture Collection (Rockville, Md.). These cancer cells were cultured in RPMI1640 medium with 10% (v/v) fetal bovine serum (FBS) and penicillin (100 units/mL)/streptomycin (100 μg/mL). Cultures were maintained in a humidified incubator at 37° C. in 5% CO2/95% air.
(§2) Cells were seeded in 96-well plates in medium with 5% FBS for 24 hrs. They were then further incubated with a vehicle (0.1% DMSO) as control or a test compound for 48 hrs or 72 hrs. The control- or compound-treated cells were fixed with 10% TCA and stained with SRB at 0.4% (w/v) in 1% acetic acid. Unbound SRB was washed off by 1% acetic acid and SRB-bound cells were solubilized with 10 mM Trizma base.
(§3) Using an absorbance (515 nm) measurement, the amounts of cellular proteins indicating cell numbers at time zero (T0), in control (C), and in the presence of the test compound (Tx) were obtained. The percentage growth was calculated at each of the compound concentration levels. Percentage growth inhibition was calculated as: 100−[(Tx−T0)/(C−T0)]×100. […]

PC-3 cells [2] = experiment: Western blot of Bcl-2 family proteins, caspases and PARP; format: cell-based, human; settings: 10 μM, 0 hr to 36 hrs
Description: Effect of benzimidazole compounds on inducing apoptosis was evaluated by testing their effect on the expression/activation of Bcl-2 family member proteins, caspases, and c-Jun N-terminal kinase (JNK). Bcl-2 family of proteins is the most important regulators of mitochondria-involved apoptotic cell death. The pro-apoptotic members, Bax, Bak and Bad, are required for the disruption of mitochondria; whereas the anti-apoptotic Bcl-2, Bcl-xL and Mcl-1 can prevent apoptosis by antagonizing the pro-apoptotic members.
PC-3 cells were incubated with a vehicle (0.1% DMSO) or Compound 55 (10 μM) for 0 hr, 6 hrs, 12 hrs, 18 hrs, 24 hrs, and 36 hrs. Then, the cells were harvested and lysed for the detection of protein expression with specific antibodies by western blot analysis. For Western blotting, the proteins (40 μg) in the lysis (including Phospho-Bcl-2, Bcl-2, Phospho-Bcl-xL, Bcl-xL, Mcl-1, Bax, Bak, Bad, GAPDH, cleaved Bad, Caspase-9, cleaved Caspase-9, Caspase-3, cleaved Caspase-3, poly-(ADP-ribose) polymerase (PARP), cleaved PARP, and GAPDH) were separated by electrophoresis in a 10 to 15% polyacrylamide gel, transferred to a nitrocellulose membrane and immuno-reacted with specific antibodies.

DU-145 cells = experiment: SRB assay, DU-145 cells; format: cell-based; settings: Homo sapiens, SRB growth inhibition, 48 hrs or 72 hrs
Description: as §1, §2, §3

PC-3 cells [3] = experiment: Western blotting of Ras, Raf-1, MEK; format: cell-based, human; settings: 10 μM
Description: (§4) PC-3 cells were incubated with a vehicle (0.1% DMSO) as control or Coumpound 55 (10 μM) for 30 min, 45 min, 60 min, and 120 min for testing Ras; or for 6 hrs, 12 hrs, 18 hrs, and 24 hrs for testing Raf-1, Phospho-MEK, MEK, and GAPDH. After the treatment, cells were washed twice with ice-cold PBS and then lysed with 100 μL lysis buffer (20 mM Tris, pH 7.5, 1 mM MgCl2, 125 mM NaCl, 1% Triton X-100, 1 mM phenylmethylsulphonylfluoride, 10 μg/mL leupeptin, 10 μg/mL aprotinin, 25 mM β-glycerophosphate, 50 mM NaF, and 100 μM sodium orthovanadate). Then, the expressions of the above proteins were detected by Western blotting.

[4] = system: hepatocellular carcinoma Hep3B cells; experiment: SRB assay, Hep3B cells; format: cell-based; settings: Homo sapiens, SRB growth inhibition, 48 hrs or 72 hrs
Description: as §1, §2, §3

[5] = system: prostate cancer PC-3 cells; experiment: SRB assay, PC-3 cells; format: cell-based; settings: Homo sapiens, SRB growth inhibition, 48 hrs or 72 hrs
Description: as §1, §2, §3

[6] = system: P-glycoprotein (P-gp)-rich breast cancer NCI/ADR-RES cells; experiment: SRB assay, NCI/ADR-RES cells; format: cell-based; settings: Homo sapiens, SRB growth inhibition, 48 hrs or 72 hrs
Description: as §1, §2, §3

PC-3 cells [7] = experiment: Western blot analysis of cell-cycle regulators; format: cell-based, human; settings: 10 μM
Description: as §4
The cell-cycle regulators were also examined by Western blot analysis. Proteins in the lysis (40 μg) were separated by electrophoresis in a 10 or 15% polyacrylamide gel, transferred to a nitrocellulose membrane and immuno-reacted with respective antibodies against Cyclin E, Cyclin A, Cyclin B1, Cdk1, Cdk2, p27, MPM2, and GAPDH.

[8] = system: human non-small cell lung cancer A549 cells; experiment: SRB assay, A549 cells; format: cell-based; settings: SRB growth inhibition, 48 hrs or 72 hrs
Description: as §1, §2, §3

LNCaP cells = experiment: SRB assay, LNCaP cells; format: cell-based; settings: Homo sapiens, SRB growth inhibition, 48 hrs or 72 hrs
Description: as §1, §2, §3

Tubulin proteins = experiment: In vitro tubulin turbidity assay; format: biochemical; settings: 37° C., 60 min
Description: Effects of the benzimidazole compounds on tubulin polymerization were detected using CytoDYNAMIX Screen 03 kit (Cytoskeleton, Inc., Denver, Colo.).
Tubulin proteins (>99% purity) were suspended in G-PEM buffer containing 80 mM PIPES, 2 mM MgCl2, 0.5 mM EDTA, and 1.0 mM GTP (pH 6.9) and 5% glycerol with or without a test compound. Then, the mixture was transferred to a 96-well plate and the absorbance was measured at 340 nm (37° C.) for 60 min (SpectraMAX Plus, Molecular Devices Inc., Sunnyvale, Calif.).
Level of tubulin polymerization was determined by examining turbidity of the tubulin suspension. Absorbance of the suspension at 340 nm was plotted as a function of time. Accordingly, the velocity and magnitude of tubulin polymerization were determined.

PC-3 cells [9] = experiment: FACScan flow cytometric analysis of cell cycle; format: cell-based, human; settings: 1 μM, 3 μM, and 10 μM, 0 hr to 48 hrs
Description: PC-3 cells were treated with Compound 55 (at different concentrations: 1 μM, 3 μM, and 10 μM) for 0 hr, 6 hrs, 12 hrs, 18 hrs, 24 hrs, 36 hrs, and 48 hrs. After treatment, cells were washed twice with ice-cold PBS, collected by centrifugation and fixed in 70% (v/v) ethanol at 4° C. for 30 min. Then, cells were treated with 0.2 ml of a buffer (containing 0.2 M Na2HPO4 and 0.1 M citric acid buffer, pH 7.8) for 30 min, centrifuged, and then incubated in 1 mL propidium iodide (PI) staining buffer (0.1% Triton X-100, 100 μg/mL RNase A, 80 μg/mL propidium iodide in PBS) at 37° C. for 30 min. Cells were detected using a cytofluorometer, and analyzed by FACScan and CellQuest program (Becton Dickinson).

PC-3 cells [10] = experiment: In situ tubulin assay (immunofluorescence microscopy); format: cell-based, human; settings: 18 to 24 h
Description: The organization and formation of microtubule were detected by immunofluorescence microscopic examination in PC-3 cells.
PC-3 cells were seeded in 8-well chamber slides and incubated with a vehicle (0.1% DMSO, control), Compound 55 (10 μM), taxol (0.1 μM), or vincristine (0.1 μM) for 18 to 24 h. Then, the cells were fixed with 100% methanol at −20° C. for 5 min and incubated in 1% bovine serum albumin (BSA) containing 0.1% Triton X-100 at 37° C. for 30 min. Cells were then washed twice with PBS for 5 min and stained with primary antibody specific to β-tubulin at 37° C. for 1 h. Afterwards, FITC-labeled secondary antibodies were used (staining performed at 37° C. for 40 min, green fluorescence) and the protein was detected using a confocal laser microscopic system (Leica TCS SP2). The nuclei were visible by DAPI staining (1 mg/mL DAPI, blue fluorescence).

COc1cc(Cn2c(-c3ccccc3)nc3cc(N4CCCC4)ccc32)cc(OC)c1OC [Compound 55, 2-phenyl-5-(pyrrolidin-1-yl)-1-(3,4,5-trimethoxybenzyl)-1H-benzo[d]imidazole]
IC50 [1]: 3300 nM | Bcl-2 phosphorylation and degradation (PC-3 cells [2]): induced the phosphorylation and degradation | Bcl-xL phosphorylation and degradation (PC-3 cells [2]): induced the phosphorylation and degradation | Mcl-1 expression (PC-3 cells [2]): decrease | PARP cleavage (PC-3 cells [2]): cleaved to produce catalytically active fragments | caspase-3 cleavage (PC-3 cells [2]): cleaved to produce catalytically active fragments | caspase-9 cleavage (PC-3 cells [2]): cleaved to produce catalytically active fragments | cleavage of pro-apoptotic Bad (PC-3 cells [2]): cleavage of pro-apoptotic Bad into 15-kDa fragments was unexpectedly induced | IC50 (DU-145 cells): 2300 nM | Ras expression (PC-3 cells [3]; 30 min to 120 min): upregulated | MEK expression (PC-3 cells [3]; 6 hrs to 24 hrs): upregulated | Raf-1 expression (PC-3 cells [3]; 6 hrs to 24 hrs): upregulated | IC50 [4]: 2400 nM | IC50 [5]: 2300 nM | IC50 [6]: 3700 nM | cyclin A expression (PC-3 cells [7]): downregulated | cyclin B1 expression (PC-3 cells [7]): upregulated | cyclin E expression (PC-3 cells [7]): downregulated | expression of p27 (a Cdk inhibitor) (PC-3 cells [7]): decreased | IC50 [8]: 2400 nM | IC50 (LNCaP cells): 1700 nM | tubulin polymerization (turbidity, absorbance at 340 nm) (Tubulin proteins): inhibited tubulin polymerization in a dose-dependent manner | cell population at G2/M phase (PC-3 cells [9]): induced an increase | hypodiploid (sub-G1, apoptosis) population of the cell cycle (PC-3 cells [9]): subsequent increase | spindle and nuclei morphology (in situ labeling of tubulin and chromosomes) (PC-3 cells [10]; 10 μM): mono-polar

CC(=O)O[C@H]1C(=O)[C@@]2(C)[C@H]([C@H](OC(=O)c3ccccc3)[C@]3(O)C[C@H](OC(=O)[C@H](O)[C@@H](NC(=O)c4ccccc4)c4ccccc4)C(C)=C1C3(C)C)[C@]1(OC(C)=O)CO[C@@H]1C[C@@H]2O [taxol]
spindle and nuclei morphology (in situ labeling of tubulin and chromosomes) (PC-3 cells [10]; 0.1 μM): multi-polar spindles and multiple nuclei were formed

CC[C@]1(O)C[C@H]2CN(CCc3c([nH]c4ccccc34)[C@@](C(=O)OC)(c3cc4c(cc3OC)N(C=O)[C@H]3[C@@](O)(C(=O)OC)[C@H](OC(C)=O)[C@]5(CC)C=CCN6CC[C@]43[C@@H]65)C2)C1 [vincristine]
spindle and nuclei morphology (in situ labeling of tubulin and chromosomes) (PC-3 cells [10]; 0.1 μM): multi-polar spindles and chromosome condensation were observed
